The record followed here is article PMC10333884, “Large‐scale phosphomimetic screening identifies phospho‐modulated motif‐based protein interactions” (Molecular Systems Biology, 2023).

Residues, ends and D or L forms follow the SMILES beside them.

Experiment [1] concerns the target T1, GABARAPL2 (Homo sapiens, UniProt P60520).
T1 construct: GABARAPL2_ATG8__P60520_2_115; GST (cleaved yes); made in house; host or cells: Escherichia coli BL21-Gold(DE3)
In words: Phosphomimetic ProP-PD selection, GABARAPL2. Conditions: phosphomimetic enrichment score of the wild-type/phosphomimetic (E) pair at the phosphosite, PM_HD2 phage selection; positive = phosphomimetic enhances binding; P-value in brackets not taken. The method, then: (§1) Selections using the PM_HD2 phage library were performed as described previously with minor modification to the original protocol. The corresponding tag protein (either GST or MBP) was first used during negative selections. Selections were run for 4 days. • Bait and tag proteins (10–15 μg in 100 μl PBS) were immobilised in 96‐well MaxiSorb plate (NUNC) o.n. at 4°C. • Escherichia coli OmniMax bacteria were grown in 2YT medium supplemented with tetracycline (100 μg/ml) at 37°C and 200 rpm. • Plates with immobilised bait/tag proteins were blocked with 0.5% BSA in PBS for 1 h at 4°C. • Phage library (10 μl/well) was prepared by diluting 10× with PBS and adding one‐fourth of the volume of PEG/NaCl. For phage precipitation, prepared library was incubated for 10 min on ice followed by centrifugation for 10 min at 10,000 × g at 4°C. […]
(§2) Based on the results from phage pool ELISAs, samples from selection Day 3 and 4 were selected for NGS, as described previously (Benz et al, [2022]). • Peptide coding regions were amplified and dual‐barcoded by PCR. […] From the columns, samples were eluted with 30 μl TE (10 mM Tris–HCl, 1 mM EDTA. pH 7.5) buffer and quantified with Quant‐iT PicoGreen dsDNA Assay Kit. • Samples were sequenced on MiSeq (MSC 2.5.0.5/RTA 1.18.54) with a 151 nt (Read1) setup using “Version3” chemistry. […]

The target in experiment [2] is T1, GABARAPL2. In words: FP displacement assay, GABARAPL2. Format: binding. As to conditions: read-out: KD values ± SEM. As to the method:
(§3) FP experiments were performed as described previously (Kliche et al, [2021]). Shortly, in order to monitor the binding event, FITC‐labelled peptides were used (excitation 495 nm, emission: 535 nm) and the FP signal was recorded in mP on a SpectraMax iD5 Multi‐Mode Microplate Reader (Molecular Devices) by measuring the emitted light in two angels. The measurements were performed at room temperature and prepared in nonbinding black half area 96‐well microplates (Corning®; 50 μl/well). For measuring direct binding, that is saturation curves, a 1:1 dilution series of protein domain (25 μl/well) was generated in 50 mM sodium phosphate buffer pH 7.4 and the measurement performed with 5 nM FITC‐labelled peptide (25 μl/well). The buffer‐corrected values were subsequently plotted with PRISM and fitted to the quadratic equation (Gianni et al, [2005]).
(§4) The 1:1 dilution series in this experiment was performed with the unlabelled peptide in 50 mM sodium phosphate buffer pH 7.4, so that each well‐contained unlabelled peptide (25 μl) at a certain concentration and pre‐formed complex (25 μl). The KD values of this indirectly monitored binding event were calculated as described previously (Nikolovska‐Coleska et al, [2004]). All measurements were at least in technical triplicates as well as biological duplicates when indicated. An amplitude shift between repeat measurements in the displacement experiments was occasionally observed due to variations in the protein preparations. If that was the case, the “active” protein concentration was back‐calculated according to the quadratic equation from the saturation curves performed in parallel. By comparing the active protein concentrations in the complex between different protein preparations, the amplitude was normalised.

Experiment [3] addresses T2, TSG101 UEV (Homo sapiens, UniProt Q99816).
T2 construct: TSG101_UEV__Q99816_1_145; made in house; host or cells: Escherichia coli BL21-Gold(DE3)
T2 sequence (Q99816 1-145): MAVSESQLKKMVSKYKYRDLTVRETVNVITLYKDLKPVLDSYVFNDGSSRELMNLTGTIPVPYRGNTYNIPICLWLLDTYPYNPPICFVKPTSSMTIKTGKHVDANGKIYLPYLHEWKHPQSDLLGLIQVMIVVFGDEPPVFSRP
The experiment is described as follows: FP displacement assay, TSG101 UEV. It is filed as binding. As to conditions: for IC50: read-out: IC50 values of displacement curves, with SEM; for Kd: read-out: KD values ± SEM. The method, then:
as §3, §4

Experiment [4] has as its target T2, TSG101 UEV. In words: Phosphomimetic ProP-PD selection, TSG101 UEV. As to conditions: phosphomimetic enrichment score of the wild-type/phosphomimetic (E) pair at the phosphosite, PM_HD2 phage selection; positive = phosphomimetic enhances binding; P-value in brackets not taken. As to the method: as §1, §2
A further experiment addresses T3, KPNA4 ARM minor (Homo sapiens, UniProt O00629).
T3 construct: 60-487; GST (cleaved yes); made in house; host or cells: Escherichia coli BL21-Gold(DE3)
In words: FP displacement assay, KPNA4 ARM minor pocket. It is filed as binding. Conditions: minor pocket probe FITC-NCOR2 5 nM, 50 mM sodium phosphate pH 7.4, room temperature, at least three technical replicates, read-out: KD values ± SEM. Summed up: (§5)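 Fluorescence polarization at room temperature in 50 mM sodium phosphate pH 7.4 with 5 nM FITC-labelled peptide; direct saturation curves with protein domain dilutions fitted to a quadratic equation. Displacement used unlabelled peptide dilutions against pre-formed complex, KD calculated per Nikolovska-Coleska; amplitudes normalised to back-calculated active protein concentration.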

In a further experiment the target is T4, KPNA4 ARM Major (Homo sapiens, UniProt O00629).
T4 construct: 60-487; GST (cleaved yes); made in house; host or cells: Escherichia coli BL21-Gold(DE3)
The experiment is described as follows: FP displacement assay, KPNA4 ARM major pocket. Format: binding. Conditions: major pocket probe FITC-MYC 5 nM, 50 mM sodium phosphate pH 7.4, room temperature, at least three technical replicates, read-out: KD values ± SEM. Summed up:
as §5

A further experiment deals with KPNA4 ARM. The experiment is described as follows: Phosphomimetic ProP-PD selection, KPNA4 ARM. It is filed as binding, human. As to conditions: phosphomimetic enrichment score of the wild-type/phosphomimetic (E) pair at the phosphosite, PM_HD2 phage selection; same score in the major and minor pocket; P-value in brackets not taken.
In experiment [5] the target is T5, MAP1LC3B (Homo sapiens, UniProt Q9GZQ8).
T5 construct: GST (cleaved yes); made in house; host or cells: Escherichia coli BL21-Gold(DE3)
The experiment is described as follows: FP displacement assay, MAP1LC3B. Format: binding. Conditions: read-out: KD values ± SEM. The method, then:
as §3, §4

In experiment [6] the target is T6, MAP1LC3A (Homo sapiens, UniProt Q9H492).
T6 construct: GST (cleaved yes); made in house; host or cells: Escherichia coli BL21-Gold(DE3)
The experiment is described as follows: FP displacement assay, MAP1LC3A. Format: binding.

The target in experiment [7] is T6, MAP1LC3A. The experiment is described as follows: Phosphomimetic ProP-PD selection, MAP1LC3A. Conditions: phosphomimetic enrichment score of the wild-type/phosphomimetic (E) pair at the phosphosite, PM_HD2 phage selection; positive = phosphomimetic enhances binding; P-value in brackets not taken. The method, then: as §1, §2
The target of experiment [8] is T5, MAP1LC3B. In words: Phosphomimetic ProP-PD selection, MAP1LC3B. Conditions: phosphomimetic enrichment score of the wild-type/phosphomimetic (E) pair at the phosphosite, PM_HD2 phage selection; positive = phosphomimetic enhances binding; P-value in brackets not taken. As to the method:
as §1, §2

Setting [9] is: Fig 4B, TSG101 UEV, technical triplicates.
[10] abbreviates: probe FITC-HIV2_Gag 5 nM, 50 mM sodium phosphate pH 7.4, room temperature, at least three technical replicates.

T1 sequence (P60520 2-115): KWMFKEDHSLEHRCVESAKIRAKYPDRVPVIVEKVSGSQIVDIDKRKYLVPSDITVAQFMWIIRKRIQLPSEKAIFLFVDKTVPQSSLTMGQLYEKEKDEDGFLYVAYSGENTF
T3 sequence (O00629 60-487): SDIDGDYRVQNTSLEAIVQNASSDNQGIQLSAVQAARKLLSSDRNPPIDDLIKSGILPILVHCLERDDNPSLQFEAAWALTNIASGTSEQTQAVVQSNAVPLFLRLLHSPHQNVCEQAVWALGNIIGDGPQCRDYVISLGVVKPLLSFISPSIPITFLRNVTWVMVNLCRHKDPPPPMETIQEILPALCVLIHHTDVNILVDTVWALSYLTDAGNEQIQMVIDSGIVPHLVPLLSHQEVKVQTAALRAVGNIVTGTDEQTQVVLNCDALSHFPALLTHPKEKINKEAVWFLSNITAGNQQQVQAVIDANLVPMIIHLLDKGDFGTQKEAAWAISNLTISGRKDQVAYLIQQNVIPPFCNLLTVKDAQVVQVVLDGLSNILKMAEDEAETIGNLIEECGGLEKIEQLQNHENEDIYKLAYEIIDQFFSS
T4 sequence (O00629 60-487): as above

`CC(=O)N[C@@H](C)C(=O)N[C@@H](CC(N)=O)C(=O)N[C@@H](CO)C(=O)N[C@@H](Cc1c[nH]c2ccccc12)C(=O)N[C@@H](CCC(N)=O)C(=O)N[C@@H](CC(C)C)C(=O)N[C@H](C(=O)N[C@@H](CCC(=O)O)C(=O)N[C@@H](CCC(=O)O)C(=O)N1CCC[C@H]1C(=O)N[C@@H](CCC(=O)O)C(=O)N[C@@H](CCCCN)C(=O)N[C@@H](CCCNC(=N)N)C(=O)N[C@@H](CCCCN)C(=O)N[C@@H](CCC(=O)O)C(=O)N[C@@H](CCC(=O)O)C(N)=O)C(C)C` [DLGAP4_907–922 E] (Ac-ANSWQLVEEPEKRKEE-NH2): the PES at GABARAPL2 [1] is given as −3.9 (0.00047). In addition, the Kd on GABARAPL2 [2] was found to be 260 ± 25 µM.
As for `CSCC[C@H](NC(=O)[C@@H]1CCCN1C(=O)[C@H](CCC(=O)O)NC(=O)[C@H](CC(C)C)NC(=O)[C@@H]1CCCN1C(=O)[C@H](C)NC(=O)[C@@H](NC(=O)[C@@H]1CCCN1C(=O)[C@H](CO)NC(=O)[C@H](CO)NC(=O)[C@H](C)NC(=O)CNC(=O)[C@H](CC(N)=O)NC(=O)[C@H](Cc1ccc(O)cc1)NC(C)=O)[C@@H](C)O)C(=O)N[C@@H](CO)C(=O)N1CCC[C@H]1C(N)=O` [GJA1_269–283 E] (Ac-YNGASSPTAPLEPMSP-NH2), at TSG101 UEV [3] (setting [9]), the IC50 amounted to 232 ± 13 µM. In addition, the Kd on TSG101 UEV [3] (setting [10]) turned out to be 115 ± 4 µM. Also, at TSG101 UEV [4], the PES is 6 (0.0013).
With `CC(=O)N[C@@H](Cc1c[nH]cn1)C(=O)N[C@@H](CO)C(=O)NCC(=O)N[C@@H](CC(N)=O)C(=O)N[C@H](C(=O)N[C@@H](CCC(=O)O)C(=O)N1CCC[C@H]1C(=O)N[C@H](C(=O)N[C@@H](C)C(=O)N1CCC[C@H]1C(=O)N1CCC[C@H]1C(=O)N[C@@H](Cc1ccc(O)cc1)C(=O)N[C@@H](CC(C)C)C(=O)N[C@@H](CCC(N)=O)C(=O)N[C@@H](CCC(=O)O)C(=O)N[C@@H](CO)C(N)=O)[C@@H](C)O)C(C)C` [PIP4P2_17–32 E] (Ac-HSGNVEPTAPPYLQES-NH2), the IC50 on TSG101 UEV [3] (setting [9]) was determined as 37 ± 8 µM. Further, on TSG101 UEV [3] (setting [10]), the Kd came out at 18 ± 2 µM. In addition, the PES on TSG101 UEV [4] is −14 (0.0000002).
For the compound `CC(=O)N[C@@H](CC(=O)O)C(=O)N[C@H](C(=O)N[C@@H](CCC(=O)O)C(=O)N[C@@H](Cc1c[nH]cn1)C(=O)NCC(=O)NCC(=O)N[C@@H](CCCCN)C(=O)N[C@@H](CCCNC(=N)N)C(=O)N[C@@H](CCC(=O)O)C(=O)N[C@@H](CCCNC(=N)N)C(=O)N[C@@H](CC(C)C)C(=O)N[C@H](C(=O)N1CCC[C@H]1C(=O)N[C@H](C(=O)N[C@@H](CO)C(=O)N[C@@H](Cc1ccc(O)cc1)C(N)=O)C(C)C)[C@@H](C)O)C(C)C` [SQSTM1_258–272 E] (Ac-DVEHGGKRERLTPVSY-NH2), the results for the Kd at KPNA4 ARM minor and on KPNA4 ARM Major were 41 ± 2 µM and 5.3 ± 0.4 µM, respectively. For the same compound, the PES in the experiment with KPNA4 ARM is −3 (0.0096).
With `CC(=O)N[C@@H](CCC(N)=O)C(=O)N[C@@H](CC(N)=O)C(=O)N[C@@H](CC(C)C)C(=O)N[C@@H](CO)C(=O)N[C@@H](CCCNC(=N)N)C(=O)N[C@@H](CCC(=O)O)C(=O)N[C@@H](Cc1c[nH]c2ccccc12)C(=O)N[C@@H](Cc1c[nH]cn1)C(=O)N[C@@H](CC(=O)O)C(=O)N[C@H](C(=O)N[C@@H](CCC(N)=O)C(=O)N[C@H](C(=O)N[C@@H](CO)C(=O)N[C@@H](CO)C(=O)N[C@@H](C)C(=O)N[C@@H](Cc1ccc(O)cc1)C(N)=O)C(C)C)C(C)C` [TPD52L2_91–106 E] (Ac-QNLSREWHDVQVSSAY-NH2), the Kd on MAP1LC3B [5] is 225 ± 17 µM; at MAP1LC3A [6] (read-out: KD values ± SEM), 78 ± 3 µM. For the same compound, the IC50 on MAP1LC3A [6] (Fig 4B, MAP1LC3A ATG8, FP displacement, technical triplicates, read-out: IC50 values of displacement curves, with SEM) was found to be 223 ± 12 µM. For the same compound, the figures for the PES on MAP1LC3A [7] and at MAP1LC3B [8] were 14 (0.000000099) and 3 (0.012), respectively.
With “H3COC-QSIAREPS(pS/E)APSIPTPY-NH2 [PDCD6IP711–725 E, phosphomimetic (E) PDCD6IP 711-725 peptide]”, the “IC50 values of displacement curves, with SEM” value at TSG101 UEV [3] (setting [9]) is reported as “n.b”. In addition, the “KD values ± SEM” value at TSG101 UEV [3] (setting [10]) is “n.b”. Moreover, the PES on TSG101 UEV [4] is reported as −15 (0.00000004).
